Measured values from patent publication US20050256134A1, “Use of creatine analogues and creatine kinase modulators for the prevention and treatment of glucose metabolic disorders” (AVICENA GROUP, INC., priority 1995, published 2005).
Like-named read-outs stand apart in the source and are kept apart here.

Tests used:
[1] = in vivo; cited from earlier work
[2] = tested on: normal animals and a model for non-insulin dependent diabetes mellitus; settings: cited from earlier work
rats = settings: intravenous; cited from earlier work
[3] = tested on: female Fisher 344 rats bearing rat mammary adenocarcinoma 13762; test: Effect of creatine compounds on glucose levels in rats bearing tumors (i.v., days 4-8 and 14-18); assay type: in vivo; settings: for Glucose Levels: i.v. days 4-8 and 14-18
Method: Two creatine compounds, creatine phosphate and cyclocreatine, were injected intravenously into tumor bearing rats, and the level of glucose in the rats was monitored. Beta guanidino propionic acid, also was administered. […] There was no specific reason for using tumor bearing rats, except convenience because the antitumor activity of these compounds also was being studied. The presence of the tumors should not have any effect on the ability of these compounds to regulate glucose levels. The rats carrying the tumors were described by us previously (see, […] et al., Cancer Chemother. Pharmacol, 35: 411-416, 1995). The schedule and dose selected in these experiments was based on prior experience working with this class of compounds as anticancer or antiviral chemotherapeutic agents. The rat mammary adenocarcinoma 13762 was implanted in the female Fisher 344 rats on day zero. The creatine compounds were administered intravenously on days 4-8 and days 14-18. The amounts used were 1 gm/kg of cyclocreatine, 0.93 gm/kg for beta guanidino propionic acid, and 2.32 gm/kg for creatine phosphate. […] Plasma glucose levels were measured at around 11 a.m., by taking a drop of blood from the animals and testing glucose levels using a commercial kit ([…] bG, Boehringer Mannheim). For animals that were treated with drugs, the treatment was around 9 a.m., and bleeding was also at around 11 a.m. To examine more closely what occurred in the above two experiments, the average readings of glucose levels from experiments one and two were taken in the following time intervals post drug treatment: Days 2-3, Days 4-8, Days 8-12, Days 14-18, Day 15 and Days 19-22.

Molecule	hypoglycemic effect [1]	undesirable side effects [1]	Glucose Levels ([2]; large amounts for several weeks)	Glucose Levels ([2]; model for non-insulin dependent diabetes mellitus)	Glucose Levels ([2]; normal animals)	Glucose Levels (rats)	insulin release (rats)	Glucose Levels ([3]; Example 1)	Glucose Levels ([3]; Example 2 (repeat))	effects on glucose level ([3]; average of experiments one and two)
Augmentin	produced hypoglycemia	hypertension and circulatory collapse	–	–	–	–	–	–	–	–
N=C(N)NCCC(=O)O [beta guanidino propionic acid]	–	–	not to affect glucose levels	had an effect on glucose levels	not to affect glucose levels	did not affect glucose levels	stimulated insulin release	Minimal changes in glucose levels	minimal effect	< 15%
N=C(N)NCCC[C@H](N)C(=O)O [Arginine]	–	–	–	–	–	did not affect glucose levels	stimulated insulin release	–	–	–
